One data set concerns dermal thickness in skin. The data set is described as follows: Dermal thickness in treated back skin of mice (HE staining). The class given is in vivo, C57BL/6 mice. Here is the method: (§1) Sodium 4-[(1E)-2-[[(4-chlorophenyl)methyl]sulfonyl]alkyne]-benzoate was dissolved in water to prepare an aqueous solution of sodium 4-[(1E)-2-[[(4-chlorophenyl)methyl]sulfonyl]alkyne]-benzoate (i.e., an anti-aging preparation for skin). Six healthy C57BL/6 mice aged 6-8 weeks with similar body sizes were selected, and the hair on the backs of the mice was removed gently and harmlessly to expose a similar area of skin on the back of each mouse. The six mice were divided into two groups equally. The same volume of pure water and aqueous solutions containing […] sodium 4-[(1E)-2-[[(4-chlorophenyl)methyl]sulfonyl]alkyne]-benzoate were applied, respectively, to the hair-removed skin on the backs of the mice once a day for 30 consecutive days.
Experimental method: after continuously applying an aqueous solution containing 0.5 μM of sodium 4-[(1E)-2-[[(4-chlorophenyl)methyl]sulfonyl]alkyne]-benzoate or pure water as a blank control to the backs of mice for 30 days, the mice were euthanized for cutting the skin from the treated areas, and hematoxylin-eosin (HE) staining method was used for detecting the dermal thickness in the skin. Specifically, the tissues were fixed, dehydrated with a sucrose solution, embedded in OCT, sliced, stained with hematoxylin, counterstained blue with tap water, stained with eosin, dehydrated and cleared, and then mounted.

For data set [1], the system named is collagen fiber content in skin. The data set can be described thus: Collagen fiber content in treated back skin of mice (Masson staining). The class given is in vivo, C57BL/6 mice. How it is done:
as §1
Experimental method: after continuously applying an aqueous solution containing 0.5 μM of sodium 4-[(1E)-2-[[(4-chlorophenyl)methyl]sulfonyl]alkyne]-benzoate or pure water as a blank control to the backs of mice for 30 days, the mice were euthanized for cutting the skin from the treated areas, and the Masson staining method was used for detecting the collagen fiber content in the skin. […]

The subject of data set [2] is COL1A2. The data set can be described thus: COL1A2 expression in mouse skin fibroblasts by fluorescent quantitative PCR. The class given is cell-based, C57BL/6 mice. The following applies: for expression of COL1A2 in the fibroblasts relative to blank control group: mouse skin fibroblasts. From the text: (§2) Experimental method: skin tissues were taken from the backs of newborn C57BL/6 mice, and fibroblasts obtained from mice were isolated and purified. […] The third-generation of fibroblasts were taken for experiments.
Experimental method: the COL1A2 level was detected using fluorescent quantitative polymerase chain reaction (PCR) method. The experiment was divided into two major groups: a blank control group and a sodium 4-[(1E)-2-[[(4-chlorophenyl)methyl]sulfonyl]alkyne]-benzoate treatment group. In the blank control group, the fibroblasts were cultured in a normal medium; and in the sodium 4-[(1E)-2-[[(4-chlorophenyl)methyl]sulfonyl]alkyne]-benzoate treatment group, the fibroblasts were treated with five media containing different concentrations (0.1 μM, […], 1 μM, 3 μM, and 6 μM) of sodium 4-[(1E)-2-[[(4-chlorophenyl)methyl]sulfonyl]alkyne]-benzoate (i.e., normal medium added with sodium 4-[(1E)-2-[[(4-chlorophenyl)methyl]sulfonyl]alkyne]-benzoate at the aforementioned concentrations) for 24 h. The specific process was as follows. The third-generation of fibroblasts was uniformly inoculated into a six-well plate. In the blank control group, the fibroblasts were cultured in the normal medium, and in the sodium 4-[(1E)-2-[[(4-chlorophenyl)methyl]sulfonyl]alkyne]-benzoate treatment group, the fibroblasts were cultured in media containing sodium 4-[(1E)-2-[[(4-chlorophenyl)methyl]sulfonyl]alkyne]-benzoate at the corresponding concentrations. After 24 h of culture, total RNA was extracted from the fibroblasts and subjected to reverse transcription to obtain complementary deoxyribonucleic acid (cDNA), which was then subjected to fluorescent quantitative PCR. After the end of reaction, an amplification curve and a melting curve of the fluorescent quantitative PCR were confirmed, with glyceraldehyde-3-phosphate dehydrogenase (GAPDH) as an internal reference gene. The results were analyzed using the internationally accepted 2^−ΔΔCt method.
Total RNA of fibroblasts was extracted using standard laboratory RNA extraction method and stored at −80° C. for later use. The extracted total RNA of fibroblasts was used as a template to synthesize cDNA by using the standard laboratory method, and the synthesized cDNA was stored at −20° C. for later use.
Fluorescent quantitative PCR system: 10 μL of qPCR SYBR Green Master Mix, 2 μL of 2 μM upstream primer, 2 μL of 2 μM downstream primer, and 1000 ng of cDNA template, a total volume of 20 μL by supplementing with diethyl pyrocarbonate (DEPC)-treated water.
Reaction conditions: pre-denaturation at 95° C. for 5 min, followed by 40 cycles of 10 sec at 95° C., 20 sec at 52.9° C., and 20 sec at 72° C. After the end of reaction, the melting curve was analyzed.
Experimental method: the COL1A2 level was detected using fluorescent quantitative PCR method. The experiment was divided into two major groups: a blank control group and a sodium 4-[(1E)-2-[[(4-chlorophenyl)methyl]sulfonyl]alkyne]-benzoate treatment group. In the blank control group, the fibroblasts were cultured in a normal medium; and in the sodium 4-[(1E)-2-[[(4-chlorophenyl)methyl]sulfonyl]alkyne]-benzoate treatment group, the fibroblasts were cultured in a medium containing 0.5 μM of sodium 4-[(1E)-2-[[(4-chlorophenyl)methyl]sulfonyl]alkyne]-benzoate, with incubation times of 24 h, 48 h, and 72 h. The specific process was as follows. The third-generation of fibroblasts was uniformly inoculated into a six-well plate. In the blank control group, the fibroblasts were cultured in a normal medium, and in the sodium 4-[(1E)-2-[[(4-chlorophenyl)methyl]sulfonyl]alkyne]-benzoate treatment group, the fibroblasts were cultured in a medium containing 0.5 μM of sodium 4-[(1E)-2-[[(4-chlorophenyl)methyl]sulfonyl]alkyne]-benzoate (i.e., normal medium containing 0.5μ M of sodium 4-[(1E)-2-[[(4-chlorophenyl)methyl]sulfonyl]alkyne]-benzoate). […]

The test system of the next data set is MMP-13. The data set can be described thus: MMP-13 mRNA level in treated back skin of mice (fluorescent quantitative PCR). The following applies: aqueous solution 0.5 M (so in the source) applied to hair-removed back skin once a day for 30 days, P=0.0171. The class given is in vivo, C57BL/6 mice. How it is done:
(§3) Sodium 4-[(1E)-2-[[(4-chlorophenyl)methyl]sulfonyl]alkyne]-benzoate was dissolved in water to prepare an aqueous solution of sodium 4-[(1E)-2-[[(4-chlorophenyl)methyl]sulfonyl]alkyne]-benzoate (i.e., an anti-aging preparation for skin). Six healthy C57BL/6 mice aged 6-8 weeks with similar body sizes were selected, and the hair on the backs of the mice was removed gently and harmlessly to expose a similar area of skin on the back of each mouse. The six mice were divided into two groups equally. […]
Experimental method: after continuously applying an aqueous solution containing 0.5 M of sodium 4-[(1E)-2-[[(4-chlorophenyl)methyl]sulfonyl]alkyne]-benzoate or pure water as a blank control to the backs of mice for 30 days, the mice were euthanized for cutting the skin from the treated areas, and the fluorescent quantitative PCR method was used for detecting the mRNA level of MMP-13 in skin tissue. Specifically, total RNA was extracted from skin tissues, and subjected to reverse transcription to obtain cDNA, which was then subjected to fluorescence quantitative PCR. After the end of reaction, an amplification curve and a melting curve of the fluorescent quantitative PCR were confirmed, with GAPDH as an internal reference gene. The results were analyzed using the internationally accepted 2^−ΔΔCt method. […]

The next data set concerns fibroblasts. The data set is described as follows: Cell viability of fibroblasts after administration (status photographed under a microscope). The class given is cell-based, C57BL/6 mice. The following applies: 0.5 μM, 24 h and 48 h. Here is the method:
as §2
Experimental method: the third-generation of fibroblasts was uniformly inoculated into a six-well plate. In the blank control group, the fibroblasts were cultured in a normal medium, and in the sodium 4-[(1E)-2-[[(4-chlorophenyl)methyl]sulfonyl]alkyne]-benzoate treatment group, the fibroblasts were cultured in a medium containing 0.5 μM of sodium 4-[(1E)-2-[[(4-chlorophenyl)methyl]sulfonyl]alkyne]-benzoate (i.e., normal medium containing 0.5 μM of sodium 4-[(1E)-2-[[(4-chlorophenyl)methyl]sulfonyl]alkyne]-benzoate). After culturing for 24 h and 48 h, respectively, the status of fibroblasts was photographed under a microscope.

Data set [3] has as its system COL1A2. The data set is described as follows: COL1A2 mRNA level in treated back skin of mice (fluorescent quantitative PCR). The class given is in vivo, C57BL/6 mice. The note with it: aqueous solution 0.5 μM applied to hair-removed back skin once a day for 30 days, P=0.0178. Here is the method:
as §3
(§4) Experimental method: after continuously applying the same volume of aqueous solutions containing 0.5 μM of sodium 4-[(1E)-2-[[(4-chlorophenyl)methyl]sulfonyl]alkyne]-benzoate or pure water as a blank control to the backs of mice for 30 days, the mice were euthanized for cutting the skin from the treated areas. The Westernblot method was employed to detect the protein level of COL1A2, and the fluorescent quantitative PCR method was employed to detect the mRNA level of COL1A2.
Fluorescence quantitative PCR experiment was performed specifically as follows. Total RNA was extracted from skin tissues, and subjected to reverse transcription to obtain cDNA, which was then subjected to fluorescence quantitative PCR. After the end of reaction, an amplification curve and a melting curve of the fluorescent quantitative PCR were confirmed, with GAPDH as an internal reference gene. […]

Data set [4] has as its system COL1A2. The data set can be described thus: COL1A2 protein level in treated back skin of mice (Westernblot). The class given is in vivo, C57BL/6 mice. The following applies: aqueous solution 0.5 μM applied to hair-removed back skin once a day for 30 days, P=0.0378. How it is done:
as §3, §4
The specific process for the Westernblot experiment was as follows. […] After fluorescent secondary antibodies were incubated, the samples were visualized using an infrared fluorescence scanning imaging system. […]

[5] abbreviates: same effect verification as Examples 1 and 2.

Take `O=C(O)c1ccc(/C=C/S(=O)(=O)Cc2ccc(Cl)cc2)cc1`: in the data set on dermal thickness in skin (setting [5]), the “increasing the dermal thickness in the skin, compared with the sodium salt” value is “equivalent effects”. In addition, in data set [1] (setting [5]), the “increasing the collagen fiber content in the skin, compared with the sodium salt” value is listed as “equivalent effects”. Also, in the data set on COL1A2 [2] (setting [5]), the “increasing the expression of type I collagen (COL1A2) in cells, compared with the sodium salt” value was “equivalent effects”.
As to `O=C([O-])c1ccc(/C=C/S(=O)(=O)Cc2ccc(Cl)cc2)cc1.[Na+]`, the “dermal thickness in the skin, increase compared to pure water blank control group” value in the data set on dermal thickness in skin (aqueous solution 0.5 μM applied to hair-removed back skin once a day for 30 days, P=0.0004) is given as 2.9101 times. The “collagen fiber content in the skin, increase compared to pure water blank control group” value in data set [1] (aqueous solution 0.5 μM applied to hair-removed back skin once a day for 30 days, P=0.0010) was determined as 3.3904 times. Further, the “mRNA level of MMP-13 in skin, decrease compared to pure water blank control group” value with MMP-13 came out at 0.5124 times. Besides, the “expression of COL1A2 in the fibroblasts relative to blank control group” value is reported as 1.613 times with COL1A2 [2] (0.5 μM, 24 h, P=0.0003) and 1.173 times in the data set with COL1A2 [2] (1 μM, 24 h, P<0.0001). Also, in the data set with COL1A2 [2] (0.5 μM, incubation time from 24 h to 72 h), the “expression of COL1A2 in fibroblasts with extension of incubation time” value is reported as “decreases”. In addition, the “expression of COL1A2 in fibroblasts compared to the blank control group” value in the data set on COL1A2 [2] (0.5 μM, incubation time of 72 h) was “no difference”. Besides, the “expression of COL1A2 in the fibroblasts” value in the data set with COL1A2 [2] (any other concentrations (0.1 μM, 3 μM, 6 μM), 24 h) was “cannot increase the expression of COL1A2”. Also, in the data set with fibroblasts, the “viability / status of fibroblasts” value is listed as “no adverse effects on viability of fibroblasts”. The “mRNA level of COL1A2 in skin, increase compared to pure water blank control group” value in the data set on COL1A2 [3] worked out at 2.681 times. In addition, in the data set with COL1A2 [4], the “protein level of COL1A2 in skin, increase compared to pure water blank control group” value was determined as 4.024 times.

These data come from patent publication US12251458B1, “Anti-aging preparation for skin and application thereof” (South China Normal University, priority 2023, dated 2025).
